US6949533B2, “6,7-Oxygenated steroids and uses related thereto” (Inflazyme Pharmaceuticals Ltd., priority 1996, dated 2005)

Legend:
sensitized guinea pigs = experiment: allergen-induced changes in lung resistance and compliance in vivo; design: species or system guinea pig
Procedure: Female Cam Hartley guinea pigs (350-400 g) are sensitized to ovalbumin by exposure of the guinea pigs to a nebulized solution of 1% ovalbumin in saline for 15 minutes. After 10-12 days, the animals are found to be acutely sensitized to the allergen (ovalbumin). Animals are treated by oral gavage, under light halothane anesthesia, with 300 μl polyethyleneglycol-200 (PEG) or 5 mg/Kg of test compound in 300 μl of PEG. Animals are treated once daily for 4 days with the final dose administered 2 hours prior to allergen challenge. Alternatively, compounds were delivered by inhalation, using a Hudson nebulizer driven by 6 psi oxygen, providing a single dose of 50 μg/Kg 20 min prior to challenge.
An animal is anaesthetized using ketamine ([…]; i.p.) and xylazine (10 mg/Kg; i.p.) and 1% halothane during the surgical procedure. A tracheostomy is performed and a water-filled esophageal cannula is inserted prior to positioning the animal in a body plethysmograph. The tracheal cannula is attached to a fixed tracheal cannula in the plethysmograph. Cardiac function is monitored using electrocardiography. The animal is paralyzed using pancuronium bromide (0.8 mg/Kg; i.m.) and ventilated with 3 ml tidal breaths using a Harvard small animal ventilator, at a frequency of 60 breaths per minute. Pulmonary resistance and dynamic lung compliance data are obtained from volume, flow and transpulmonary pressure signals using multipoint analysis.
Pulmonary function is continually monitored throughout the experiment and measurements of lung resistance and lung compliance are made at various time-points (e.g., 0, 1, 2, 3, 4, 5, 10, 20 and 30 min) following antigen challenge. Data is collected on a computer-linked physiological measurement system using DIREC Physiological recording software and analyzed using ANADAT software designed for lung mechanics measurements. This software was obtained from RHT-InfoDat Inc., Montreal, Quebec, Canada.
Once baseline resistance and compliance measurements are obtained, the animal is challenged with 6 breaths of saline. After 10 minutes, during which time no alterations in lung function should occur, the animal is challenged with 6 breaths of 2 or 3% ovalbumin in saline (as the antigen stimulus). Saline and antigen are delivered in each breath using a Hudson nebulizer.

[1] = tested on: Ascaris suum sensitized sheep; experiment: allergic sheep model of asthma; type: in vivo
Procedure: The model is conscious, where the animals are breathing spontaneously, allowing measurement of airways bronchoconstriction and acute airway hyperresponsiveness.
Sheep which were naturally sensitized to Ascaris suum (30-40 Kg) were intubated with an endotracheal tube and a balloon catheter, positioned in the lower esophagus. Pleural pressure was estimated with the esophageal catheter, while later pressure was measured with a side-hole catheter advanced through and positioned distal to the tip of the endotracheal tube. Transpulmonary pressure differences between the trachea and pleural pressures were measured with a differential pressure transducer catheter system.
The proximal end of the endotracheal tube was connected to a Fleisch pneumotachograph in order to measure flow changes. Pulmonary resistance (RL) was calculated from pressure measurements of transpulmonary pressure, respiratory volume (from digital integration of the flow signal) and flow by the mid-flow technique. SRL was calculated as RL Vtg (Vtg=thoracic gas volume).
Aerosols generated using a disposable nebulizer, were directed into a T-piece connected to a Harvard respirator and the tracheal tube in series. The aerosol delivery was controlled using a dosimeter system, consisting of a solenoid valve and compressed air (20 psi) activated at the start of each inspiratory cycle. Aerosols were delivered in tidal volumes of 500 ml at […].
Selected compounds from the invention were dissolved as a stock solution in DMSO and diluted in saline. Animals received either, 400 μg/Kg of compound 30 min prior to challenge and 4 hours after challenge, or 400 μg/Kg of compound for 4 days with the last dose 2 hours before challenge. Ascaris suum extract was diluted in phosphate buffered saline to a concentration of 82000 protein nitrogen units/ml and delivered by aerosol over 20 min. Carbachol was dissolved in PBS to concentrations of 0.25, 0.5 1.0, 2.0, 4.0% wt/vol. Each animal served as its own control throughout the study.
Specific lung resistance (SRL) was measured every 60 min for 8 hours after antigen challenge. Airways hyperresponsiveness to carbachol was measured 24 hours after the initial challenge.

[2] = 5 mg/kg/day for 4 days p.o., 1 min after challenge
[3] = 5 mg/kg/day for 4 days p.o., 3 min after challenge
[4] = 5 mg/kg/day for 4 days p.o., 4 min after challenge
[5] = 5 mg/kg/day for 4 days p.o., 5 min after challenge
[6] = 5 mg/kg/day for 4 days p.o., 10 min after challenge
[7] = 5 mg/kg/day for 4 days p.o., 20 min after challenge
[8] = 5 mg/kg/day for 4 days p.o., 30 min after challenge
[9] = 5 mg/kg/day for 4 days p.o., Baseline
[10] = 5 mg/kg/day for 4 days p.o., OA/10 s
[11] = 400 μg/kg/day for 4 days, inhalation, Baseline

C/C=C1/CCC2C3C(CC[C@]12C)[C@@]1(C)CC[C@@H](O)CC1[C@@H](O)[C@@H]3O (stereo partly drawn) [Compound 330, 3α,6α,7β-trihydroxy-17(20)-pregnene]
Lung Resistance (sensitized guinea pigs; 50 μg/kg inhalation, 3 min after challenge): 0.420 ± 0.051 cm H2O/ml/sec | Lung Compliance (sensitized guinea pigs; 50 μg/kg inhalation, 4 min after challenge): 0.145 ± 0.046 ml/cm H2O | Lung Compliance (sensitized guinea pigs; [2]): 0.182 ± 0.093 ml/cm H2O | Lung Resistance (sensitized guinea pigs; [2]): 0.560 ± 0.101 cm H2O/ml/sec | Lung Resistance (sensitized guinea pigs; 5 mg/kg/day for 4 days p.o., 2 min after challenge): 0.845 ± 0.201 cm H2O/ml/sec | Lung Compliance (sensitized guinea pigs; [3]): 0.133 ± 0.095 ml/cm H2O | Lung Resistance (sensitized guinea pigs; [3]): 0.887 ± 0.160 cm H2O/ml/sec | Lung Compliance (sensitized guinea pigs; [4]): 0.124 ± 0.088 ml/cm H2O | Lung Resistance (sensitized guinea pigs; [4]): 0.778 ± 0.119 cm H2O/ml/sec | Lung Compliance (sensitized guinea pigs; [5]): 0.125 ± 0.087 ml/cm H2O | Lung Resistance (sensitized guinea pigs; [5]): 0.791 ± 0.139 cm H2O/ml/sec | Lung Compliance (sensitized guinea pigs; [6]): 0.150 ± 0.082 ml/cm H2O | Lung Resistance (sensitized guinea pigs; [6]): 0.661 ± 0.141 cm H2O/ml/sec | Lung Compliance (sensitized guinea pigs; [7]): 0.184 ± 0.061 ml/cm H2O | Lung Resistance (sensitized guinea pigs; [7]): 0.366 ± 0.046 cm H2O/ml/sec | Lung Compliance (sensitized guinea pigs; [8]): 0.196 ± 0.061 ml/cm H2O | Lung Resistance (sensitized guinea pigs; [8]): 0.340 ± 0.037 cm H2O/ml/sec | Lung Compliance (sensitized guinea pigs; [9]): 0.318 ± 0.042 ml/cm H2O | Lung Resistance (sensitized guinea pigs; [9]): 0.275 ± 0.036 cm H2O/ml/sec | Lung Compliance (sensitized guinea pigs; [10]): 0.435 ± 0.041 ml/cm H2O | Lung Resistance (sensitized guinea pigs; [10]): 0.260 ± 0.036 cm H2O/ml/sec | PC400 Hyperresponsiveness to carbachol ([1]; 400 μg/kg inhalation 30 min prior to and 4 hours after challenge, Baseline): 26.01 ± 3.06 Breath Units | PC400 Hyperresponsiveness to carbachol ([1]; 400 μg/kg inhalation 30 min prior to and 4 hours after challenge, Post-Challenge (24 hours)): 22.79 ± 6.11 Breath Units | Specific Lung Resistance ([1]; 400 μg/kg inhalation 30 min prior to and 4 hrs after challenge, 1 hr): 117 ± 11 % Baseline | Specific Lung Resistance ([1]; 400 μg/kg inhalation 30 min prior to and 4 hrs after challenge, 2 hr): 49 ± 11 % Baseline | Specific Lung Resistance ([1]; 400 μg/kg inhalation 30 min prior to and 4 hrs after challenge, 3 hr): 32 ± 6 % Baseline | Specific Lung Resistance ([1]; 400 μg/kg inhalation 30 min prior to and 4 hrs after challenge, 4 hr): 20 ± 6 % Baseline | Specific Lung Resistance ([1]; 400 μg/kg inhalation 30 min prior to and 4 hrs after challenge, 5 hr): 14 ± 4 % Baseline | Specific Lung Resistance ([1]; 400 μg/kg inhalation 30 min prior to and 4 hrs after challenge, 6 hr): 14 ± 5 % Baseline | Specific Lung Resistance ([1]; 400 μg/kg inhalation 30 min prior to and 4 hrs after challenge, 6.5 hr): 18 ± 6 % Baseline | Specific Lung Resistance ([1]; 400 μg/kg inhalation 30 min prior to and 4 hrs after challenge, 7 hr): 10 ± 2 % Baseline | Specific Lung Resistance ([1]; 400 μg/kg inhalation 30 min prior to and 4 hrs after challenge, 7.5 hr): 17 ± 8 % Baseline | Specific Lung Resistance ([1]; 400 μg/kg inhalation 30 min prior to and 4 hrs after challenge, 8 hr): 5 ± 3 % Baseline | Specific Lung Resistance ([1]; 400 μg/kg inhalation 30 min prior to and 4 hrs after challenge, Baseline): 2 ± 5 % Baseline | Specific Lung Resistance ([1]; 400 μg/kg inhalation 30 min prior to and 4 hrs after challenge, Challenge (0)): 268 ± 35 % Baseline | Specific Lung Resistance ([1]; 400 μg/kg inhalation 30 min prior to and 4 hrs after challenge, −0.5 hr): 0 ± 4 % Baseline | Specific Lung Resistance ([1]; 400 μg/kg/day for 4 days, inhalation, 1 hr): 34.00 ± 10.75 % Baseline | Specific Lung Resistance ([1]; 400 μg/kg/day for 4 days, inhalation, 2 hr): 11.50 ± 6.18 % Baseline | Specific Lung Resistance ([1]; 400 μg/kg/day for 4 days, inhalation, 3 hr): −15.00 ± 37.67 % Baseline | Specific Lung Resistance ([1]; 400 μg/kg/day for 4 days, inhalation, 4 hr): 4.00 ± 1.78 % Baseline | Specific Lung Resistance ([1]; 400 μg/kg/day for 4 days, inhalation, 5 hr): −4.50 ± 4.17 % Baseline | Specific Lung Resistance ([1]; 400 μg/kg/day for 4 days, inhalation, 6 hr): 7.75 ± 9.75 % Baseline | Specific Lung Resistance ([1]; 400 μg/kg/day for 4 days, inhalation, 6.5 hr): 5.50 ± 4.87 % Baseline | Specific Lung Resistance ([1]; 400 μg/kg/day for 4 days, inhalation, 7 hr): 10.75 ± 4.91 % Baseline | Specific Lung Resistance ([1]; 400 μg/kg/day for 4 days, inhalation, 7.5 hr): 4.00 ± 2.35 % Baseline | Specific Lung Resistance ([1]; 400 μg/kg/day for 4 days, inhalation, 8 hr): 3.25 ± 4.73 % Baseline | PC400 Hyperresponsiveness to carbachol [1, 11]: 21.26 ± 2.75 Breath Units | Specific Lung Resistance [1, 11]: 5.25 ± 4.50 % Baseline | Specific Lung Resistance ([1]; 400 μg/kg/day for 4 days, inhalation, Challenge (0)): 126.00 ± 19.11 % Baseline | PC400 Hyperresponsiveness to carbachol ([1]; 400 μg/kg/day for 4 days, inhalation, Post-Challenge (24 hours)): 21.21 ± 3.10 Breath Units | Specific Lung Resistance ([1]; 400 μg/kg/day for 4 days, inhalation, −0.5 hr): −3.75 ± 4.29 % Baseline
